# Test results from ChEMBL document CHEMBL2021894, “The Discovery of VX-745: A Novel and Selective p38α Kinase Inhibitor” (ACS Med Chem Lett, 2011).
# pIC50: −log10 of the molar value. The source made the active and inactive calls. The calls are words filed in the database; no cut-off is given here.
# Assays:
# [1] = target: Cyclin-dependent kinase 1 (Homo sapiens) (UniProt P06493); settings: 2 uM
# Description: Inhibition of CDK1 at 2 uM
# Cytochrome P450 2D6 = Cytochrome P450 2D6 (Homo sapiens, UniProt P10635); assay: Inhibition of human CYP2D6; format: ADME
# Canis familiaris [2] = assay: Oral bioavailability in beagle dog at 33 mg/kg; format: ADME, organism-based, Canis lupus familiaris; settings: in vivo
# [3] = Volume of distribution at steady state in beagle dog at 13.8 mg/kg, iv; format: ADME, organism-based, Canis lupus familiaris; set-up: dose 13.8 mg/kg, route intravenous; settings: in vivo, read-out: Vdss
# [4] = target: Ribosomal protein S6 kinase alpha-5 (Homo sapiens) (UniProt O75582); settings: 2 uM
# Description: Inhibition of MSK1 at 2 uM
# [5] = target: RAF proto-oncogene serine/threonine-protein kinase (Homo sapiens) (UniProt P04049); settings: 2 uM
# Description: Inhibition of RAFc at 2 uM
# [6] = target: Angiopoietin-1 receptor (Homo sapiens) (UniProt Q02763); settings: 2 uM
# Description: Inhibition of Tie2 at 2 uM
# [7] = target: MAP kinase-activated protein kinase 5 (Homo sapiens) (UniProt Q8IW41); assay: Inhibition of PRAK at 2 uM
# [8] = Half life in beagle dog at 13.8 mg/kg, iv; format: ADME, organism-based, Canis lupus familiaris; set-up: dose 13.8 mg/kg, route intravenous; settings: in vivo
# [9] = target: Serine/threonine-protein kinase N2 (Homo sapiens) (UniProt Q16513); assay: Inhibition of PRK2 at 2 uM
# [10] = target: Serine/threonine-protein kinase Chk1 (Homo sapiens) (UniProt O14757); settings: 2 uM
# Description: Inhibition of CHK1 at 2 uM
# [11] = target: Cyclin-dependent kinase 5 (Homo sapiens) (UniProt Q00535); settings: 2 uM
# Description: Inhibition of CDK5 at 2 uM
# Mus musculus [12] = assay: Antiarthritic activity in complete Freund's adjuvant-immunized DBA/1J mouse assessed as inhibition of type 2 collagen-induced bone and cartilage erosion at 10 mg/kg, po bid measured on day 20; format: functional; settings: 480 h
# [13] = Clearance in BALB/c mouse at 2 mg/kg, iv; format: ADME, organism-based; set-up: dose 2 mg/kg, route intravenous; settings: in vivo
# [14] = Volume of distribution at steady state in Sprague-Dawley rat at 4.8 mg/kg, iv; format: ADME, organism-based; set-up: dose 4.8 mg/kg, route intravenous; settings: in vivo, read-out: Vdss
# [15] = Plasma protein binding in rat; format: ADME, cell-free; settings: read-out: PPB (converted)
# Cytochrome P450 2C9 = Cytochrome P450 2C9 (Homo sapiens, UniProt P11712); assay: Inhibition of human CYP2C9; format: ADME
# [16] = Clearance in Sprague-Dawley rat at 4.8 mg/kg, iv; format: ADME, organism-based; set-up: dose 4.8 mg/kg, route intravenous; settings: in vivo
# [17] = Cmax in BALB/c mouse at 40 mg/kg, po; format: ADME, organism-based; set-up: dose 40 mg/kg, route oral; settings: in vivo
# [18] = Half life in Sprague-Dawley rat at 43 mg/kg, po; format: ADME, organism-based; set-up: dose 43 mg/kg, route oral; settings: in vivo
# [19] = AUC in BALB/c mouse at 40 mg/kg, po; format: ADME, organism-based; set-up: dose 40 mg/kg, route oral; settings: plasma
# [20] = target: Mitogen-activated protein kinase 11 (Homo sapiens) (UniProt Q15759); settings: 2 uM
# Description: Inhibition of p38beta at 2 uM
# [21] = Volume of distribution at steady state in BALB/c mouse at 2 mg/kg, iv; format: ADME, organism-based; set-up: dose 2 mg/kg, route intravenous; settings: in vivo, read-out: Vdss
# Mus musculus [22] = assay: Antiarthritic activity in complete Freund's adjuvant-immunized DBA/1J mouse assessed as inhibition of type 2 collagen-induced bone and cartilage erosion at 5 mg/kg, po bid measured on day 20; format: functional; settings: 480 h
# [23] = Oral bioavailability in Sprague-Dawley rat at 43 mg/kg; format: ADME, organism-based; settings: in vivo
# [24] = target: Tyrosine-protein kinase Lck (Homo sapiens) (UniProt P06239); assay: Inhibition of LCK at 2 uM
# Mus musculus [25] = assay: Antiarthritic activity in complete Freund's adjuvant-immunized DBA/1J mouse assessed as inhibition of type 2 collagen-induced paw inflammation at 5 mg/kg, po bid measured on day 20; format: functional; settings: 480 h
# [26] = target: Ribosomal protein S6 kinase alpha-2 (Homo sapiens) (UniProt Q15349); settings: 2 uM
# Description: Inhibition of Rsk3 at 2 uM
# [27] = target: Tyrosine-protein kinase Fes/Fps (Homo sapiens) (UniProt P07332); settings: 2 uM
# Description: Inhibition of FES at 2 uM
# [28] = Half life in beagle dog at 33 mg/kg, po; format: ADME, organism-based, Canis lupus familiaris; set-up: dose 33 mg/kg, route oral; settings: in vivo
# [29] = target: Mitogen-activated protein kinase 11 (Homo sapiens) (UniProt Q15759); settings: 100 uM
# [30] = target: Tyrosine-protein kinase receptor UFO (Homo sapiens) (UniProt P30530); settings: 2 uM
# Description: Inhibition of Axl at 2 uM
# Mus musculus [31] = assay: Antiarthritic activity in complete Freund's adjuvant-immunized DBA/1J mouse assessed as inhibition of type 2 collagen-induced paw inflammation at 10 mg/kg, po bid measured on day 20; format: functional; settings: 480 h
# [32] = target: Serine/threonine-protein kinase Sgk1 (Homo sapiens) (UniProt O00141); assay: Inhibition of SGK at 2 uM
# Cytochrome P450 3A4 = Cytochrome P450 3A4 (Homo sapiens, UniProt P08684); assay: Inhibition of human CYP3A4; format: ADME
# [33] = target: Tyrosine-protein kinase Lyn (Homo sapiens) (UniProt P07948); settings: 2 uM
# Description: Inhibition of Lyn at 2 uM
# [34] = Cmax in beagle dog at 33 mg/kg, po; format: ADME, organism-based, Canis lupus familiaris; set-up: dose 33 mg/kg, route oral; settings: in vivo
# [35] = target: Inhibitor of nuclear factor kappa-B kinase subunit alpha (Homo sapiens) (UniProt O15111); settings: 2 uM
# Description: Inhibition of IKKa at 2 uM
# Cytochrome P450 1A2 = Cytochrome P450 1A2 (Homo sapiens, UniProt P05177); assay: Inhibition of human CYP1A2; format: ADME
# PBMC = assay: Antiproliferative activity against PHA-stimulated human PBMC assessed as inhibition of cell proliferation after 72 hrs by thymidine incorporation assay; format: cell-based
# [36] = Induction of human cytochrome P450; format: ADME
# [37] = Half life in BALB/c mouse at 40 mg/kg, po; format: ADME, organism-based; set-up: dose 40 mg/kg, route oral; settings: in vivo
# [38] = target: Dual specificity mitogen-activated protein kinase kinase 6 (Homo sapiens) (UniProt P52564); assay: Inhibition of MKK6
# Mus musculus [39] = assay: Antiarthritic activity in complete Freund's adjuvant-immunized DBA/1J mouse assessed as inhibition of type 2 collagen-induced paw inflammation at […], po bid measured on day 20; format: functional; settings: 480 h, dose 2.5 mg/kg
# [40] = target: Tyrosine-protein kinase Blk (Homo sapiens) (UniProt P51451); settings: 2 uM
# Description: Inhibition of Blk at 2 uM
# [41] = target: Mitogen-activated protein kinase 10 (Homo sapiens) (UniProt P53779); assay: Inhibition of JNK3 using KRELVEPLTPSGEAPNQALLR as substrate at 100 uM by spectrophotometric enzyme-coupled assay
# [42] = target: Fibroblast growth factor receptor 3 (Homo sapiens) (UniProt P22607); assay: Inhibition of FGFR3 at 2 uM
# Canis familiaris [43] = assay: AUC in beagle dog at 13.8 mg/kg, iv; format: ADME, organism-based, Canis lupus familiaris, Plasma; set-up: dose 13.8 mg/kg, route intravenous; settings: in vivo
# Canis familiaris [44] = assay: AUC in beagle dog at 33 mg/kg, po; format: ADME, organism-based, Canis lupus familiaris, Plasma; set-up: dose 33 mg/kg, route oral; settings: in vivo
# [45] = AUC in Sprague-Dawley rat at 43 mg/kg, po; format: ADME, organism-based; set-up: dose 43 mg/kg, route oral; settings: plasma
# [46] = target: Mitogen-activated protein kinase 1 (Homo sapiens) (UniProt P28482); assay: Inhibition of ERK2 using ATGPLSPGPFGRR as substrate at 100 uM by spectrophotometric enzyme-coupled assay
# Chain of Mitogen-activated protein kinase 1 (Homo sapiens) (P28482 whole entry): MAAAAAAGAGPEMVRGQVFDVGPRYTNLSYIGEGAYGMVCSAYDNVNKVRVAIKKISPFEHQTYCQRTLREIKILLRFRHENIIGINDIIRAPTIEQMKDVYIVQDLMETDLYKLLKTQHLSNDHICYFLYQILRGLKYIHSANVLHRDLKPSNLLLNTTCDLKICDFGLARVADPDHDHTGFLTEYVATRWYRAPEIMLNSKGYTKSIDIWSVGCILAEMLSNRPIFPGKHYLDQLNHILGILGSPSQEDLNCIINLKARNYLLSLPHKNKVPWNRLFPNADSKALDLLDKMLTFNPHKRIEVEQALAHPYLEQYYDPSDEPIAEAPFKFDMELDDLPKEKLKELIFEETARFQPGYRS
# Chain of Mitogen-activated protein kinase 11 (Homo sapiens) (Q15759 whole entry): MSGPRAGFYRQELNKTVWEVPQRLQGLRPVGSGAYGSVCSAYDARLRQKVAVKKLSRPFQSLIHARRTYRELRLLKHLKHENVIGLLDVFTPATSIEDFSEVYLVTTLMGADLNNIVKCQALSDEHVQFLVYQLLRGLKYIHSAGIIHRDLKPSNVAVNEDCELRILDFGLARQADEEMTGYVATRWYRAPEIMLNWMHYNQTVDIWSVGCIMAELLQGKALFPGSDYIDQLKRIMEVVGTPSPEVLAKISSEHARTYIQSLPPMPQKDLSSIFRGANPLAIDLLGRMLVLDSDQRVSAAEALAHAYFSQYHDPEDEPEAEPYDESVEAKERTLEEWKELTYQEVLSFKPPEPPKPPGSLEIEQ
# Chain of Cyclin-dependent kinase 1 (Homo sapiens) (P06493 whole entry, looked up): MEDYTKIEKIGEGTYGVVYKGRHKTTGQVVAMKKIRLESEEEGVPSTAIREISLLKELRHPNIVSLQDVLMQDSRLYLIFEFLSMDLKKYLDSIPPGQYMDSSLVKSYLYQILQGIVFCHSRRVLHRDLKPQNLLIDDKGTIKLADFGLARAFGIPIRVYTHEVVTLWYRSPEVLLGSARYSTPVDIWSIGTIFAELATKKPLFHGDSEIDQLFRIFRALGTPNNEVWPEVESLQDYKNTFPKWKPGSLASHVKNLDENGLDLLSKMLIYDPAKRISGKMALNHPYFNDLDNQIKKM
# Chain of Ribosomal protein S6 kinase alpha-5 (Homo sapiens) (O75582 whole entry, looked up): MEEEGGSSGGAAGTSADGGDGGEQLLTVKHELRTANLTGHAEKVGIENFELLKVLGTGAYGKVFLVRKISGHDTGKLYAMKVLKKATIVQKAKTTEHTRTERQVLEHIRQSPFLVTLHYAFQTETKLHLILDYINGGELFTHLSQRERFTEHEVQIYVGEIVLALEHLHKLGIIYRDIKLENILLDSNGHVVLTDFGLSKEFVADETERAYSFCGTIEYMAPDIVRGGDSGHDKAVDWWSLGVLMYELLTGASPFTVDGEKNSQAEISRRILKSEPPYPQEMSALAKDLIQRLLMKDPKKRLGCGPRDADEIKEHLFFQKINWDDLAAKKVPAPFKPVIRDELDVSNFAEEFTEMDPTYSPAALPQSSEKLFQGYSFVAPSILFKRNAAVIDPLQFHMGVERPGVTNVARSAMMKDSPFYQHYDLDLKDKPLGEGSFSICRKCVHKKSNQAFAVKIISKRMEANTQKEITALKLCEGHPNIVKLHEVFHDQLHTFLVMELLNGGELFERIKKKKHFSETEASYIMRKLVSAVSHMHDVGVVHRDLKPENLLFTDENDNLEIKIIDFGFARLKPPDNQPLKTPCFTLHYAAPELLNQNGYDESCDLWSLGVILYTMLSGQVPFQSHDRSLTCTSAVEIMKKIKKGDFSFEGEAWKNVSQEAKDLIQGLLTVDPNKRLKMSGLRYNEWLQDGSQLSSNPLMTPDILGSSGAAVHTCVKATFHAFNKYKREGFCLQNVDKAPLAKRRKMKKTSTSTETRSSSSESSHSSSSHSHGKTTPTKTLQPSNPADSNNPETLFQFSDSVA
# Chain of Cytochrome P450 3A4 (P08684 whole entry): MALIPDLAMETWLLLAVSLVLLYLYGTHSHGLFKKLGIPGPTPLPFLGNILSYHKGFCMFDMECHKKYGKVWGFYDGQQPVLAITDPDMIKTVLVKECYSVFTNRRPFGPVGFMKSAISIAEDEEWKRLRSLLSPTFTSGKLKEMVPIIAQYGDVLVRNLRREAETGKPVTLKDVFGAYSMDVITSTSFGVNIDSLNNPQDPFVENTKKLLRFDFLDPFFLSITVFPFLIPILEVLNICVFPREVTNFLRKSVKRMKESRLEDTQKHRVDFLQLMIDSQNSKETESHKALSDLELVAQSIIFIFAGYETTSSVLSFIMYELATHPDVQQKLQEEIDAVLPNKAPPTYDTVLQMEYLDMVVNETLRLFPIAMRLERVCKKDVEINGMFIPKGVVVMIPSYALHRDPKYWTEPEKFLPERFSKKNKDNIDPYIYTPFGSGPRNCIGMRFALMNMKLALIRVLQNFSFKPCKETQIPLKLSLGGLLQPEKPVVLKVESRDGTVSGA
# Chain of Ribosomal protein S6 kinase alpha-2 (Homo sapiens) (Q15349 whole entry): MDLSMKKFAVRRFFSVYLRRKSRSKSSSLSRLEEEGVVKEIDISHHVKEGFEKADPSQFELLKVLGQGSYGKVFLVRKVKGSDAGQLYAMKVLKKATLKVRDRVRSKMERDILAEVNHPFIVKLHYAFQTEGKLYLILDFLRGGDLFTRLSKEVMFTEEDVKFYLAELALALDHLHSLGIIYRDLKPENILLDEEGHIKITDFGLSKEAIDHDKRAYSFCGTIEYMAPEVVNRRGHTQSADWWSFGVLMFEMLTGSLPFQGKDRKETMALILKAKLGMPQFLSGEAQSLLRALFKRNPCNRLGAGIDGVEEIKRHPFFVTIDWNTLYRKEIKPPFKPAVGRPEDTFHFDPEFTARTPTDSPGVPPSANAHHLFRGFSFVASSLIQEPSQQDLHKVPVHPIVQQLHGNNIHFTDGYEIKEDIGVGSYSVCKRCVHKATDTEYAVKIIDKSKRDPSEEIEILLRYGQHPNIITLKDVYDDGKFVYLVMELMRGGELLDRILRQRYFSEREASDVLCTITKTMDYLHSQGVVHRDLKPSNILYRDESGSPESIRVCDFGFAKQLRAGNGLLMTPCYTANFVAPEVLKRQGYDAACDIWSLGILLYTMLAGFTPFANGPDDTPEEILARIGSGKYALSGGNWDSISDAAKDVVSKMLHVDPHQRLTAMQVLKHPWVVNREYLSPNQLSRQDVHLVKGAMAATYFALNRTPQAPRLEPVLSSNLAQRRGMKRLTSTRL
# Chain of Serine/threonine-protein kinase Sgk1 (Homo sapiens) (O00141 whole entry): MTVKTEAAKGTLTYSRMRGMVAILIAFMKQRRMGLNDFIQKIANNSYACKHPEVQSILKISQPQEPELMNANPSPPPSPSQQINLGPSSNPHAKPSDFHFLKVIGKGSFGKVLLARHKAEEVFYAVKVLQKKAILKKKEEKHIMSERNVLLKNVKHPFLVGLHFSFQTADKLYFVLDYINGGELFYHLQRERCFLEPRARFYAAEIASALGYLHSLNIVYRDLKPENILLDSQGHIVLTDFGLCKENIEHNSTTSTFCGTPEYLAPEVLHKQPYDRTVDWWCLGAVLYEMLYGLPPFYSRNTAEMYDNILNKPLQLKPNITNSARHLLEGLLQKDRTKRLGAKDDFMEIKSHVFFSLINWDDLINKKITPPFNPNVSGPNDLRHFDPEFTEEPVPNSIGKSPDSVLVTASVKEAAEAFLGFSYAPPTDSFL
# Chain of Tyrosine-protein kinase Lyn (Homo sapiens) (P07948 2-512 limits assumed): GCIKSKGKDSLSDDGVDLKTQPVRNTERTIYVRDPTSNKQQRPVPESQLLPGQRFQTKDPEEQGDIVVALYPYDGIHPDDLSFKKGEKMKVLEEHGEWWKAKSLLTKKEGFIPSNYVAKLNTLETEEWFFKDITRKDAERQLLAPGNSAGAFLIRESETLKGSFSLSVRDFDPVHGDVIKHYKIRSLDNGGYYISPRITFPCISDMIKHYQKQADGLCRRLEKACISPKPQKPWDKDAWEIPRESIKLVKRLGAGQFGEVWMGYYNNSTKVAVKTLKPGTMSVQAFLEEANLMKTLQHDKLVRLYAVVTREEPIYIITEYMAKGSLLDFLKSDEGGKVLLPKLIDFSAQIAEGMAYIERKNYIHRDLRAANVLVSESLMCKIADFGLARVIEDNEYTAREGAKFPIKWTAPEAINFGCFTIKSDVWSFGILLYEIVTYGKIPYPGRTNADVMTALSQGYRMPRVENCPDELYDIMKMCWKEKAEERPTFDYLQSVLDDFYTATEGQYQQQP
# Chain of Dual specificity mitogen-activated protein kinase kinase 6 (Homo sapiens) (P52564 whole entry): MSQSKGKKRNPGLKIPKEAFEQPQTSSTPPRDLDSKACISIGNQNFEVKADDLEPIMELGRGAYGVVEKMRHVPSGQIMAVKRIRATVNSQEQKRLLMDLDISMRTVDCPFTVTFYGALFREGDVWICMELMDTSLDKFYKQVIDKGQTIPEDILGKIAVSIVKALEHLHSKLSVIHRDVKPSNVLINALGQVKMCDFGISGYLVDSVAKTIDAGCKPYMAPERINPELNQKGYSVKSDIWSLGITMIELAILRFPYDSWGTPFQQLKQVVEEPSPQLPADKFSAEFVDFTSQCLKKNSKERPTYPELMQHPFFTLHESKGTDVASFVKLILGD
# Chain of Cytochrome P450 2C9 (P11712 whole entry): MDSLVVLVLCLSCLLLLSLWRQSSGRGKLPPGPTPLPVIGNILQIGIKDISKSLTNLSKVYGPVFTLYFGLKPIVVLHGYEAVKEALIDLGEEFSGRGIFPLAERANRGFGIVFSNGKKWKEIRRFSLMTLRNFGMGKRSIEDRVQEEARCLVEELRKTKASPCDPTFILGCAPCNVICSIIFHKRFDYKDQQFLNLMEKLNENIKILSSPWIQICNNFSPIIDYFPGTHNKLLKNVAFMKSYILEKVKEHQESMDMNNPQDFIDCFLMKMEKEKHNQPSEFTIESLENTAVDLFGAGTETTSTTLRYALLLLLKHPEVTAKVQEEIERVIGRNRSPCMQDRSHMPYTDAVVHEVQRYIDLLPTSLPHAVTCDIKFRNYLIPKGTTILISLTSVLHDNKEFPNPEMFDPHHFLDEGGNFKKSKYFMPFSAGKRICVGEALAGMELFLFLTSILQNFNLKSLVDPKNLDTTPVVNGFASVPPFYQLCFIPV
structure (smiles),measurement,setting,value
O=c1ncn2nc(Sc3ccc(F)cc3F)ccc2c1-c1c(Cl)cccc1Cl [NEFLAMAPIMOD],inhibition,[1],0%
same,pIC50,Cytochrome P450 2D6,< 4.40
same,F,Canis familiaris [2],69%
same,Vd,[3],2.3 L/kg
same,inhibition,[4],0%
same,inhibition,[5],0%
same,inhibition,[6],0%
same,inhibition,[7],12%
same,half-life,[8],1.5 h
same,inhibition,[9],13%
same,inhibition,[10],0%
same,inhibition,[11],0%
same,inhibition in vivo at 10 mg/kg,Mus musculus [12],39%
same,clearance,[13],21 mL/min/kg
same,Vd,[14],3.9 L/kg
same,fraction unbound,[15],0.02
same,pIC50,Cytochrome P450 2C9,< 4.40
same,clearance,[16],63 mL/min/kg
same,Cmax,[17],7850 ng/mL
same,half-life,[18],4.5 h
same,AUC,[19],27000 ng·h/mL
same,inhibition,[20],84%
same,Vd,[21],2.2 L/kg
same,inhibition in vivo at 5 mg/kg,Mus musculus [22],32%
same,bioavailability,[23],56%
same,inhibition,[24],20%
same,inhibition in vivo at 5 mg/kg,Mus musculus [25],31%
same,inhibition,[26],0%
same,inhibition,[27],7%
same,half-life,[28],4.5 h
same,inhibition,[29],inactive
same,inhibition,[30],0%
same,inhibition in vivo at 10 mg/kg,Mus musculus [31],44%
same,inhibition,[32],5%
same,pIC50,Cytochrome P450 3A4,< 4.40
same,inhibition,[33],0%
same,Cmax,[34],1370 ng/mL
same,inhibition,[35],0%
same,pIC50,Cytochrome P450 1A2,< 4.40
same,Activity,PBMC,Non-toxic
same,Activity,[36],Not Active
same,half-life,[37],4.5 h
same,inhibition,[38],Active
same,inhibition in vivo at […],Mus musculus [39],27%
same,inhibition,[40],0%
same,inhibition,[41],inactive
same,inhibition,[42],20%
same,AUC,Canis familiaris [43],6120 ng·h/mL
same,AUC,Canis familiaris [44],4340 ng·h/mL
same,AUC,[45],6300 ng·h/mL
same,inhibition,[46],inactive
